Experiments:
barnyard grass [1] = test: Test Example 3: herbicidal effect by foliage application, Wagner pot (Table 18, symbol H); type: in vivo, barnyard grass (Echinochloa crus-galli); settings: 320 g/ha
Method in brief: (§1)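 Plants were sown in alluvial soil held under 0.1–0.5 cm standing water and grown 14 days in a greenhouse at 25–30 °C. An emulsifiable formulation, water-diluted to the set dose, was then sprayed onto the foliage, and effects were scored three weeks later using previously defined criteria.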

chickweed [2] = test: Test Example 5: herbicidal effect by foliage application, plastic box (Table 20, symbol P); type: in vivo, common chickweed (Stellaria media); settings: foliage application, 320 g/ha, three weeks after application
Method in brief: (§2)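 Plants sown in sterilized diluvial soil and grown 14 days in a greenhouse at 25° C to 30° C, then sprayed on the foliage with the compound's emulsion diluted in water to a predetermined herbicide amount. Injury to weeds and crops scored three weeks after application on a visual rating scale.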

blackgrass [3] = test: Test Example 4: herbicidal effect by soil treatment (Table 19, symbol J); type: in vivo, blackgrass (Alopecurus myosuroides); settings: amount of applied herbicide 320 g/ha
Method in brief: (§3)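 Seeds were sown in sterilized diluvial soil and covered with about 1.5 cm of soil. An emulsion formulation diluted with water to a predetermined herbicide amount was sprayed evenly onto the soil surface. Plants grew in a greenhouse at 25° C. to 30° C., and the effect was scored three weeks after application using criteria from an earlier test.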

false cleavers [4] = test: Test Example 4: herbicidal effect by soil treatment (Table 19, symbol Q); type: in vivo, false cleavers (Galium spurium); settings: amount of applied herbicide 320 g/ha
Method in brief: as §3

redroot pigweed [5] = test: Test Example 4: herbicidal effect by soil treatment (Table 19, symbol N); type: in vivo, redroot pigweed (Amaranthus retroflexus); settings: amount of applied herbicide 320 g/ha
Method in brief: as §3

Japanese bulrush = test: Test Example 1: herbicidal activity, application before weed generation under submerged conditions (Table 16, symbol B); type: in vivo, Japanese bulrush (Schoenoplectus juncoides); settings: 320 g/ha applied herbicide
Method in brief: (§4)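 Submerged Wagner pots (alluvial soil, 4 cm water) sown with weed seeds and planted with 2.5-leaf rice seedlings; emulsifiable concentrate diluted in water applied to water surface on sowing day. Held in greenhouse at 25-30 °C; injury scored 0-5 by herbicidal rate after three weeks.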

velvetleaf [6] = test: Test Example 4: herbicidal effect by soil treatment (Table 19, symbol M); type: in vivo, velvetleaf (Abutilon theophrasti); settings: amount of applied herbicide 320 g/ha
Method in brief: as §3

blackgrass [7] = test: Test Example 5: herbicidal effect by foliage application, plastic box (Table 20, symbol J); type: in vivo, blackgrass (Alopecurus myosuroides); settings: foliage application, 320 g/ha, three weeks after application
Method in brief: as §2

wild oat [8] = test: Test Example 4: herbicidal effect by soil treatment (Table 19, symbol I); type: in vivo, wild oat (Avena fatua); settings: amount of applied herbicide 320 g/ha
Method in brief: as §3

redroot pigweed [9] = test: Test Example 5: herbicidal effect by foliage application, plastic box (Table 20, symbol N); type: in vivo, redroot pigweed (Amaranthus retroflexus); settings: foliage application, 320 g/ha, three weeks after application
Method in brief: as §2

lambsquarters [10] = test: Test Example 5: herbicidal effect by foliage application, plastic box (Table 20, symbol O); type: in vivo, lambsquarters (Chenopodium album); settings: foliage application, 320 g/ha, three weeks after application
Method in brief: as §2

green foxtail [11] = test: Test Example 4: herbicidal effect by soil treatment (Table 19, symbol G); type: in vivo, green foxtail (Setaria viridis); settings: amount of applied herbicide 320 g/ha
Method in brief: as §3

barnyard grass [12] = test: Test Example 5: herbicidal effect by foliage application, plastic box (Table 20, symbol H); type: in vivo, barnyard grass (Echinochloa crus-galli); settings: foliage application, 320 g/ha, three weeks after application
Method in brief: as §2

velvetleaf [13] = test: Test Example 5: herbicidal effect by foliage application, plastic box (Table 20, symbol M); type: in vivo, velvetleaf (Abutilon theophrasti); settings: foliage application, 320 g/ha, three weeks after application
Method in brief: as §2

southern crabgrass [14] = test: Test Example 5: herbicidal effect by foliage application, plastic box (Table 20, symbol F); type: in vivo, southern crabgrass (Digitaria ciliaris); settings: foliage application, 320 g/ha, three weeks after application
Method in brief: as §2

barnyard grass [15] = test: Test Example 4: herbicidal effect by soil treatment (Table 19, symbol H); type: in vivo, barnyard grass (Echinochloa crus-galli); settings: amount of applied herbicide 320 g/ha
Method in brief: as §3

Italian ryegrass [16] = test: Test Example 5: herbicidal effect by foliage application, plastic box (Table 20, symbol K); type: in vivo, Italian ryegrass (Lolium multiflorum); settings: foliage application, 320 g/ha, three weeks after application
Method in brief: as §2

lambsquarters [17] = test: Test Example 4: herbicidal effect by soil treatment (Table 19, symbol O); type: in vivo, lambsquarters (Chenopodium album); settings: amount of applied herbicide 320 g/ha
Method in brief: as §3

persian speedwell [18] = test: Test Example 5: herbicidal effect by foliage application, plastic box (Table 20, symbol R); type: in vivo, Persian speedwell (Veronica persica); settings: foliage application, 320 g/ha, three weeks after application
Method in brief: as §2

Italian ryegrass [19] = test: Test Example 4: herbicidal effect by soil treatment (Table 19, symbol K); type: in vivo, Italian ryegrass (Lolium multiflorum); settings: amount of applied herbicide 320 g/ha
Method in brief: as §3

windgrass [20] = test: Test Example 5: herbicidal effect by foliage application, plastic box (Table 20, symbol L); type: in vivo, windgrass (Apera spica-venti); settings: foliage application, 320 g/ha, three weeks after application
Method in brief: as §2

oval-leafed pondweed = test: Test Example 1: herbicidal activity, application before weed generation under submerged conditions (Table 16, symbol C); type: in vivo, oval-leafed pondweed (Monochoria vaginalis); settings: 320 g/ha applied herbicide
Method in brief: as §4

persian speedwell [21] = test: Test Example 4: herbicidal effect by soil treatment (Table 19, symbol R); type: in vivo, Persian speedwell (Veronica persica); settings: amount of applied herbicide 320 g/ha
Method in brief: as §3

chickweed [22] = test: Test Example 4: herbicidal effect by soil treatment (Table 19, symbol P); type: in vivo, common chickweed (Stellaria media); settings: amount of applied herbicide 320 g/ha
Method in brief: as §3

rice flat sedge = test: Test Example 3: herbicidal effect by foliage application, Wagner pot (Table 18, symbol E); type: in vivo, rice flat sedge (Cyperus iria); settings: 320 g/ha
Method in brief: as §1

late watergrass = test: Test Example 1: herbicidal activity, application before weed generation under submerged conditions (Table 16, symbol A); type: in vivo, late watergrass (Echinochloa oryzicola); settings: 320 g/ha applied herbicide
Method in brief: as §4

wild oat [23] = test: Test Example 5: herbicidal effect by foliage application, plastic box (Table 20, symbol I); type: in vivo, wild oat (Avena fatua); settings: foliage application, 320 g/ha, three weeks after application
Method in brief: as §2

false cleavers [24] = test: Test Example 5: herbicidal effect by foliage application, plastic box (Table 20, symbol Q); type: in vivo, false cleavers (Galium spurium); settings: foliage application, 320 g/ha, three weeks after application
Method in brief: as §2

Chinese sprangletop = test: Test Example 3: herbicidal effect by foliage application, Wagner pot (Table 18, symbol D); type: in vivo, chinese sprangletop (Leptochloa chinensis); settings: 320 g/ha
Method in brief: as §1

southern crabgrass [25] = test: Test Example 4: herbicidal effect by soil treatment (Table 19, symbol F); type: in vivo, southern crabgrass (Digitaria ciliaris); settings: amount of applied herbicide 320 g/ha
Method in brief: as §3

windgrass [26] = test: Test Example 4: herbicidal effect by soil treatment (Table 19, symbol L); type: in vivo, windgrass (Apera spica-venti); settings: amount of applied herbicide 320 g/ha
Method in brief: as §3

green foxtail [27] = test: Test Example 5: herbicidal effect by foliage application, plastic box (Table 20, symbol G); type: in vivo, green foxtail (Setaria viridis); settings: foliage application, 320 g/ha, three weeks after application
Method in brief: as §2

Row | Compound | herbicidal effect on H (barnyard grass), rating 0-5 (barnyard grass [1]) | herbicidal effect grade, P: chickweed (chickweed [2]) | herbicidal effect rating, J: blackgrass (blackgrass [3]) | herbicidal effect rating, Q: false cleavers (false cleavers [4]) | herbicidal effect rating, N: redroot pigweed (redroot pigweed [5]) | Herbicidal effect on B: Japanese bulrush (grade 0-5) (Japanese bulrush) | herbicidal effect rating, M: velvetleaf (velvetleaf [6]) | herbicidal effect grade, J: blackgrass (blackgrass [7]) | herbicidal effect rating, I: wild oat (wild oat [8]) | herbicidal effect grade, N: redroot pigweed (redroot pigweed [9]) | herbicidal effect grade, O: lambsquarters (lambsquarters [10]) | herbicidal effect rating, G: green foxtail (green foxtail [11]) | herbicidal effect grade, H: barnyard grass (barnyard grass [12]) | herbicidal effect grade, M: velvetleaf (velvetleaf [13]) | herbicidal effect grade, F: southern crabgrass (southern crabgrass [14]) | herbicidal effect rating, H: barnyard grass (barnyard grass [15]) | herbicidal effect grade, K: Italian ryegrass (Italian ryegrass [16]) | herbicidal effect rating, O: lambsquarters (lambsquarters [17]) | herbicidal effect grade, R: persian speedwell (persian speedwell [18]) | herbicidal effect rating, K: Italian ryegrass (Italian ryegrass [19]) | further results
1 | COc1ccc(F)c(-c2sc3ccccc3c2-c2c(O)c(C)nn(C)c2=O)c1 [1-053] | 3 (Herbicidal rate of 40% or more and less than 70%) | 5 (Herbicidal rate of 90% or more (almost completely withered)) | 0 (Herbicidal rate of 5% or less (almost no effect)) | 0 (Herbicidal rate of 5% or less (almost no effect)) | 4 (Herbicidal rate of 70% or more and less than 90%) | 2 (Herbicidal rate of 20% or more and less than 40%) | 2 (Herbicidal rate of 20% or more and less than 40%) | 2 (Herbicidal rate of 20% or more and less than 40%) | 0 (Herbicidal rate of 5% or less (almost no effect)) | 4 (Herbicidal rate of 70% or more and less than 90%) | 4 (Herbicidal rate of 70% or more and less than 90%) | 3 (Herbicidal rate of 40% or more and less than 70%) | 3 (Herbicidal rate of 40% or more and less than 70%) | 5 (Herbicidal rate of 90% or more (almost completely withered)) | 3 (Herbicidal rate of 40% or more and less than 70%) | 1 (Herbicidal rate of 5% or more and less than 20%) | 3 (Herbicidal rate of 40% or more and less than 70%) | 5 (Herbicidal rate of 90% or more (almost completely withered)) | 5 (Herbicidal rate of 90% or more (almost completely withered)) | 3 (Herbicidal rate of 40% or more and less than 70%) | herbicidal effect grade, L: windgrass (windgrass [20]): 3 (Herbicidal rate of 40% or more and less than 70%); Herbicidal effect on C: oval-leafed pondweed (grade 0-5) (oval-leafed pondweed): 1 (Herbicidal rate of 5% or more and less than 20%); herbicidal effect rating, R: persian speedwell (persian speedwell [21]): 3 (Herbicidal rate of 40% or more and less than 70%); herbicidal effect rating, P: chickweed (chickweed [22]): 5 (Herbicidal rate of 90% or more (almost completely withered)); herbicidal effect on E (rice flat sedge), rating 0-5 (rice flat sedge): 1 (Herbicidal rate of 5% or more and less than 20%); Herbicidal effect on A: late watergrass (grade 0-5) (late watergrass): 3 (Herbicidal rate of 40% or more and less than 70%); herbicidal effect grade, I: wild oat (wild oat [23]): 3 (Herbicidal rate of 40% or more and less than 70%); herbicidal effect grade, Q: false cleavers (false cleavers [24]): 3 (Herbicidal rate of 40% or more and less than 70%); herbicidal effect on D (Chinese sprangletop), rating 0-5 (Chinese sprangletop): 0 (Herbicidal rate of 5% or less (almost no effect)); herbicidal effect rating, F: southern crabgrass (southern crabgrass [25]): 2 (Herbicidal rate of 20% or more and less than 40%); herbicidal effect rating, L: windgrass (windgrass [26]): 0 (Herbicidal rate of 5% or less (almost no effect)); herbicidal effect grade, G: green foxtail (green foxtail [27]): 4 (Herbicidal rate of 70% or more and less than 90%)
2 | CCCC(=O)Oc1c(C)nn(C)c(=O)c1-c1c(-c2ccc(OC)c(C)c2)sc2ccccc12 [1-069] | 3 (Herbicidal rate of 40% or more and less than 70%) | 4 (Herbicidal rate of 70% or more and less than 90%) | 0 (Herbicidal rate of 5% or less (almost no effect)) | 0 (Herbicidal rate of 5% or less (almost no effect)) | 0 (Herbicidal rate of 5% or less (almost no effect)) | 3 (Herbicidal rate of 40% or more and less than 70%) | 0 (Herbicidal rate of 5% or less (almost no effect)) | 0 (Herbicidal rate of 5% or less (almost no effect)) | 0 (Herbicidal rate of 5% or less (almost no effect)) | 5 (Herbicidal rate of 90% or more (almost completely withered)) | 0 (Herbicidal rate of 5% or less (almost no effect)) | 0 (Herbicidal rate of 5% or less (almost no effect)) | 0 (Herbicidal rate of 5% or less (almost no effect)) | 5 (Herbicidal rate of 90% or more (almost completely withered)) | 0 (Herbicidal rate of 5% or less (almost no effect)) | 0 (Herbicidal rate of 5% or less (almost no effect)) | 3 (Herbicidal rate of 40% or more and less than 70%) | 0 (Herbicidal rate of 5% or less (almost no effect)) | 4 (Herbicidal rate of 70% or more and less than 90%) | 0 (Herbicidal rate of 5% or less (almost no effect)) | herbicidal effect grade, L: windgrass (windgrass [20]): 0 (Herbicidal rate of 5% or less (almost no effect)); Herbicidal effect on C: oval-leafed pondweed (grade 0-5) (oval-leafed pondweed): 3 (Herbicidal rate of 40% or more and less than 70%); herbicidal effect rating, R: persian speedwell (persian speedwell [21]): 4 (Herbicidal rate of 70% or more and less than 90%); herbicidal effect rating, P: chickweed (chickweed [22]): 3 (Herbicidal rate of 40% or more and less than 70%); herbicidal effect on E (rice flat sedge), rating 0-5 (rice flat sedge): 5 (Herbicidal rate of 90% or more (almost completely withered)); Herbicidal effect on A: late watergrass (grade 0-5) (late watergrass): 3 (Herbicidal rate of 40% or more and less than 70%); herbicidal effect grade, I: wild oat (wild oat [23]): 1 (Herbicidal rate of 5% or more and less than 20%); herbicidal effect grade, Q: false cleavers (false cleavers [24]): 0 (Herbicidal rate of 5% or less (almost no effect)); herbicidal effect on D (Chinese sprangletop), rating 0-5 (Chinese sprangletop): 0 (Herbicidal rate of 5% or less (almost no effect)); herbicidal effect rating, F: southern crabgrass (southern crabgrass [25]): 0 (Herbicidal rate of 5% or less (almost no effect)); herbicidal effect rating, L: windgrass (windgrass [26]): 0 (Herbicidal rate of 5% or less (almost no effect)); herbicidal effect grade, G: green foxtail (green foxtail [27]): 0 (Herbicidal rate of 5% or less (almost no effect))

From patent publication US20230085307A1, “PYRIDAZINONE COMPOUND AND HERBICIDE” (NISSAN CHEMICAL CORPORATION, priority 2019, published 2023)
